Test results taken from PubChem BioAssay AID1963851 (Molecular Pharmacology Branch, DTP, NCI, 2024).

Test system: 188146-221-R-J1-PDC complex spheroid viability
Assay: Anticancer human tumor 188146-221-R-J1-PDC patient-derived colon adenocarcinoma cell line growth inhibition [POLQ]
Settings: for IC50: curve of first compound; for viability, T/C: stronger effect = lower value
How it was run: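 PDC + HUVEC + MSC complex spheroids; POLQ inhibitors ± partner drugs; top conc. at/near clinical Cmax, else 10 microM (SN-38 1 microM), half-log dilutions; 37 degrees C, 5% CO2.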
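Also: spheroids exposed to compounds for seven days.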
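For viability, T/C in this document: 100% = DMSO vehicle control viability.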

CC[C@@]1(O)C(=O)OCc2c1cc1n(c2=O)Cc2cc3c(CN(C)C)c(O)ccc3nc2-1 + COC1C(OC(N)=O)C(O)C(Oc2ccc3c(O)c(NC(=O)c4ccc(O)c(CC=C(C)C)c4)c(=O)oc3c2C)OC1(C)C
IC50 (second compound 0.0316 µM): > 0.1 µM | IC50 (second compound 0.1 µM): > 0.1 µM | IC50 (second compound 0.316 µM): > 0.1 µM | IC50 (second compound 1 µM): > 0.1 µM | IC50 (second compound 3.16 µM): > 0.1 µM | IC50 (second compound 10 µM): > 0.1 µM | viability, T/C (second compound 0.0316 µM, first compound 0.000316 µM): 109% | viability, T/C (second compound 0.0316 µM, first compound 0.001 µM): 98.7% | viability, T/C (second compound 0.0316 µM, first compound 0.00316 µM): 102% | viability, T/C (second compound 0.0316 µM, first compound 0.01 µM): 101% | viability, T/C (second compound 0.0316 µM, first compound 0.0316 µM): 98.8% | viability, T/C (second compound 0.0316 µM, first compound 0.1 µM): 68.2% | viability, T/C (second compound 0.1 µM, first compound 0.000316 µM): 97.7% | viability, T/C (second compound 0.1 µM, first compound 0.001 µM): 100% | viability, T/C (second compound 0.1 µM, first compound 0.00316 µM): 89.8% | viability, T/C (second compound 0.1 µM, first compound 0.01 µM): 101% | viability, T/C (second compound 0.1 µM, first compound 0.0316 µM): 87.9% | viability, T/C (second compound 0.1 µM, first compound 0.1 µM): 66.5% | viability, T/C (second compound 0.316 µM, first compound 0.000316 µM): 106% | viability, T/C (second compound 0.316 µM, first compound 0.001 µM): 95.9% | viability, T/C (second compound 0.316 µM, first compound 0.00316 µM): 107% | viability, T/C (second compound 0.316 µM, first compound 0.01 µM): 98.1% | viability, T/C (second compound 0.316 µM, first compound 0.0316 µM): 89.2% | viability, T/C (second compound 0.316 µM, first compound 0.1 µM): 73.9% | viability, T/C (second compound 1 µM, first compound 0.000316 µM): 111% | viability, T/C (second compound 1 µM, first compound 0.001 µM): 104% | viability, T/C (second compound 1 µM, first compound 0.00316 µM): 109% | viability, T/C (second compound 1 µM, first compound 0.01 µM): 104% | viability, T/C (second compound 1 µM, first compound 0.0316 µM): 90.1% | viability, T/C (second compound 1 µM, first compound 0.1 µM): 79.3% | viability, T/C (second compound 3.16 µM, first compound 0.000316 µM): 104% | viability, T/C (second compound 3.16 µM, first compound 0.001 µM): 102% | viability, T/C (second compound 3.16 µM, first compound 0.00316 µM): 94.5% | viability, T/C (second compound 3.16 µM, first compound 0.01 µM): 91.6% | viability, T/C (second compound 3.16 µM, first compound 0.0316 µM): 102% | viability, T/C (second compound 3.16 µM, first compound 0.1 µM): 67.3% | viability, T/C (second compound 10 µM, first compound 0.000316 µM): 96.2% | viability, T/C (second compound 10 µM, first compound 0.001 µM): 90.7% | viability, T/C (second compound 10 µM, first compound 0.00316 µM): 99.5% | viability, T/C (second compound 10 µM, first compound 0.01 µM): 94.6% | viability, T/C (second compound 10 µM, first compound 0.0316 µM): 92.1% | viability, T/C (second compound 10 µM, first compound 0.1 µM): 62.9%
